In patent US20040092590A1, “Glycemic control for prediabetes and/or diabetes Type II using docosahexaenoic acid” (priority 2002, published 2004):

How the values were obtained:
[1] = tested on: KK-Ay mouse (obese diabetic mice); conditions: 100 mg/kg body weight, not normal or lean diabetic mice; cited from earlier work
[2] = tested on: subjects with HDL levels below the sex-specific median; assay: Randomized, double-blind, controlled trial of DHASCO-S capsules, six weeks; metabolic disturbance score, serum lipids, LDL particles; assay type: in vivo, human; conditions: 1.52 g DHA per day
Description: DHASCO-S capsules (which contained DHA as a triglyceride oil extracted from Schizochytrium sp. cells, obtained from Martek Biosciences Corp., Columbia, Md.) were used in the following study. Subjects (n=57) were enrolled in a randomized, double-blind, controlled trial to assess the response to 1.52 g of DHA per day for six weeks. Subjects were aged 21-80 and had HDL levels below the sex-specific median (a criterion for metabolic syndrome). The average triglyceride (TG) level at the beginning of the study was 169-179 mg/dl (metabolic syndrome criterion >150 mg/dL). The average distribution of LDL particles in this population was 44-50% small dense particles. Small dense particles are another lipid hallmark of metabolic syndrome. […] The average waist circumference for men and women combined was about 100+/−2.5 cm (criterion for metabolic syndrome is about 88 cm for women and about 102 cm for men). The average blood pressure in the study was normotensive at 120/77 mmHg.
The metabolic disturbance score was calculated to assess the relationship between independent variables and the criterion related to metabolic syndrome. The score is a composite of values for selected risk factors including: serum triglycerides, serum HDL cholesterol, systolic blood pressure, waist circumference, and fasting serum glucose. The following formula was utilized to calculate the metabolic score, where Z=the z score, i.e., the number of standard deviations above or below the mean value for each variable (Micciolo 1991; Maki 1994): Metabolic Disturbance Score=Z for triglycerides+Z for systolic blood pressure+Z for waist circumference+Z for glucose−Z for HDL cholesterol. Since triglyceride values were not normally distributed, a natural log-transformation was performed to normalize the distribution prior to calculating the Z score.
Additionally, pre-specified subgroup analyses were performed for serum lipid and metabolic disturbance score values. The triglyceride subgroups were split at the median baseline value (170 mg/dL). A Body Mass Index (BMI) of 30 kg/m^2 was chosen as the cut-point for BMI subgroups (BMI<30 kg/m2 and BMI≧30 kg/m^2) because persons with a BMI≧30 kg/M^2 are considered obese (Expert Panel 1998).

[3] = tested on: patients with dyslipidemia; assay: Clinical study: DHASCO capsules co-administered with statin medication for 12 months; assay type: in vivo, human; conditions: patients treated with DHA
Description: Thus, the present inventors have discovered that DHA has a long term effect (as shown by reduction in glycosylated hemoglobin levels reflecting longer term glucose control integrated over 2-3 months). Finally, the inventors have discovered that therapy using DHA-containing oils can be effective at DHA levels that are not excessive (e.g., at levels which minimize side effects associated with fatty acid ingestion).
In a clinical study, DHASCO capsules (which contained DHA as a triglyceride oil extracted from Crypthecodinium cohnii cells, obtained from Martek Biosciences Corp., Columbia, Md.) were co-administered with statin medication to patients with dyslipidemia. Hyperlipidemic patients already being treated with a stable dose of a statin medication but still failing to meet NCEP guidelines for LDL-cholesterol or triglycerides were treated with either 200 or 1000 mg of DHA daily for 12 months. HbA1c levels (glycosylated hemoglobin, a marker of glycemic control) were measured in plasma at baseline and after 8 or 12 months of treatment.
Reduction in CRP of this extent is clinically significant, and may be correlated with a benefit of reduced risk of Type II diabetes onset, independent of other Type II risk factors.

patients = conditions: cited from earlier work

Compound: CC/C=C\C/C=C\C/C=C\C/C=C\C/C=C\C/C=C\CCC(=O)OCC [DHA ethyl ester]
- blood glucose [1]: reduced
- insulin sensitivity [1]: enhanced
- plasma triglycerides [1]: reduced

Compound: CC/C=C\C/C=C\C/C=C\C/C=C\C/C=C\C/C=C\CCC(=O)O [DHA, docosahexaenoic acid]
- increase in large LDL particles from baseline to end of treatment ([2]; P=0.028 vs control): 32.4%
- change in small LDL particles from baseline ([2]; P=0.191 vs control): −23.2%
- change in TG from baseline ([2]; p=0.001 vs control): −25.4%
- increase in HDL ([2]; p=0.102 vs control): +9.0%
- change from baseline in metabolic disturbance score, subgroup ([2]; subjects with baseline triglycerides >=170 mg/dL, p=0.001 vs control): −1.16
- overall reduction in CRP levels [3]: 15%

Compound: CN(C)C(=N)N=C(N)N [Metformin]
- patients with gastrointestinal reactions (patients; fraction of patients): about a third
- lactic acidosis cases that are fatal (patients; rare reaction): about 50%
